Results published in patent US8916586B2, “Anti-angiogenic compound” (University College Dublin—National University of Ireland, …, priority 2011, dated 2014).
Entries after “also recorded” stand apart in the source; their conditions may differ.

Columns and labels:
[1] = tested on: IL-1β secreted from explant cultures of human colorectal cancers; assay: IL-1β secretion from human colorectal tumour explants (ELISA); format: cell-based; conditions: 72 hours; for level of IL-1β secreted by human tumour explants: 1 μM and 10 μM tested, concentration not given at place; for level of IL-1b secreted by human tumour explants: 10 μM
Method: Human colorectal tumour samples were taken directly from the pathology laboratory after surgery once adequate material was taken for diagnostic testing. The tumour samples were washed and stored in DMSO/tumour conditioning media (TCM). The samples were snap-frozen in liquid nitrogen and stored at −80° C. until compound testing was performed. Prior to compound testing, the tumours were thawed and incubated in fresh TCM for 24 hours. […] The TCM solutions were collected and stored at −20° C. and the remaining tumour explants were snap-frozen in liquid nitrogen and stored at −80° C. The protein content of each tumour sample was determined using the BCA protein assay. ELISA was used to determine the levels of VEGF, IL-8, MCP-1, GRO-α, IL-1β and IL-6. The secretion data were normalised according to the tumour sample's protein content.

[2] = tested on: hyaloid vasculature in zebrafish; assay: Zebrafish developmental angiogenesis assay: number of primary branches of hyaloid vasculature on dissected lens; format: in vivo; conditions: for dose-dependence of inhibition of hyaloid vasculature development: increasing concentrations between 1-10 μM, 5 dpf; for inhibition of intraocular angiogenesis (hyaloid vessels) in library screen: 5 day old larvae
Source text: We have used the zebrafish model as an in vivo screen for chemical libraries as the small size and transparency of the zebra fish enables high-content screens in multi-well plate formats (MacRae and Peterson, 2003; Pichler et al., 2003; Peterson et al., 2004; den Hertog, 2005; Zon and Peterson, 2005). […] To identify anti-angiogenic drugs we used a transgenic line of zebrafish that expresses a fluorescent reporter (EGFP) specifically in vasculature (Tg(fli1:efgp)). This line was obtained from the Zebrafish International Resource Center. Our assay involved screening the effect of drugs in the library on the development of blood vessels in zebrafish. Specifically, we looked at the integrity of vessels developing in the eye (hyaloid vessels attached to the lens) and in the trunk.
All experiments were carried out under ethical approval granted by the UCD animal research ethics committee. Tg(fli1:EGFP) zebrafish were maintained according to standard procedures on a 14 hr light/10 hr dark cycle at 28° C. Referring to the schematic of FIG. 1A, embryos were obtained by natural spawning and developmental stages established by time and morphological criteria. A chemical library containing numerous compounds was screened (FIG. 1A). In this specific example, the chemical library contained 5000 compounds of the DIVERSet™ collection from ChemBridge Corp., USA. At 24 hours post fertilisation (hpf), 5 embryos per well were placed in […] of Embryo Medium/1% DMSO and incubated with drug at 28° C. on a 14 h light/10 h dark cycle. Larvae were euthanised, and fixed in 4% PFA at 4° C. overnight before analysis. (FIG. 1A).
Right lenses were dissected from the larvae and transferred to depression slides for observation under epi-fluorescence in the Olympus SZX16 and to cover-slip bottom Petri-dishes for confocal microscopy in a Zeiss UV510 META LSM system (20× and 40× inverted objectives). To achieve appropriate orientation, lenses were embedded in 10% methyl-cellulose and manipulated with a tungsten needle (0.5 mm diameter). Patterning of the hyaloid vessels on the treated larval lenses was compared to DMSO controls and the archetypal pattern previously described (Alvarez et al., 2007; Alvarez et al., 2009). The number of primary vessels radiating from the back of the lens (3-4 main branches at 5 dpf in controls and previously described), was counted and the average number was graphed for each drug. From screens of ˜1600 small molecules, four “hits” that inhibited the number of primary hyaloids vessels were identified (FIG. 1B).
To validate the “hits” from the library screen, dose-dependence experiments were conducted by screening the drugs in the assay described in Example 2 above but at a range of increasing concentrations between 1-10 μM. Larvae were maintained under the drug treatments at 28° C. on 14 hr light/10 hr dark cycle until 5 days post fertilisation (dpf), when they were euthanised and fixed in 4% PFA at 4° C. overnight before analysis. The average number of primary hyaloids branches was graphed for each concentration of drug. […] One of the lead compounds identified by the screen of chemical library was 11B which has the chemical name 2-[2-2-quinolinyl)vinyl]phenol and its structure shown below: […]

zebrafish larvae = assay: Gross morphology / toxicity and eye morphology of treated zebrafish larvae; format: in vivo; conditions: for toxic effects / gross morphology of larvae: treated 1-5 dpf
Method: Prior to analysis of the intraocular vasculature, the control and treated larvae were observed under an Olympus SZX16 stereo zoom microscope and screened for general malformations. Overall patterning of the vasculature (fin, gut and intersegmental vessels) was examined for abnormalities (FIGS. 7B and 9A).
Visual function was assessed using the optokinetic response, a behavioural assay that tests the ability of larval zebrafish to track moving stripes (Brockerhoff 2006). […] For these experiments the compounds were screened in zebrafish larvae as described above except that the drug (compound 11B) was added at either day 1, 2, 3 or 4, and all treated larvae were analysed at day 5.

[3] = tested on: trunk intersegmental vessels of zebrafish; assay: Quantification of intersegmental vessel number in zebrafish larvae; format: in vivo; conditions: for inhibition of developmental angiogenesis of the trunk intersegmental vessels / inhibition at 10 µM: 10 μM; for inhibition of developmental angiogenesis of the trunk intersegmental vessels: added at 6 hours post-fertilisation; for dose-dependence of inhibition of intersegmental vessel development: 0.1-10 μM; for dose-dependence of inhibition of intersegmental vessel development / inhibition at 10 µM: added at 6 hours post fertilisation; for inhibition at 10 µM: Danio rerio, read-out: inhibition of intersegmental vessel formation
Method: […] Larvae were manually dechorionated, euthanised, and fixed in 4% PFA at 4° C. overnight before analysis. The larvae were then washed with PBS and transferred to depression slides for observation under epi-fluorescence in an Olympus SZX16 fluorescent microscope. The number of intersegmental vessels was counted and the average number was graphed for each drug. […] At the highest concentration (10 μM), 11B was seen to inhibit intersegmental vessel formation by 44%. 11F inhibited intersegmental vessel formation by 16% at the highest concentration (10 μM).

[4] = tested on: dermal-derived normal human microvascular endothelial cells (HMVEC-d); assay: Crystal violet-based proliferation assay in HMVEC-d; format: cell-based; conditions: 100 nM (FIG. 13), 24 h
Method: HMVEC-d were purchased from Clonetics, San Diego, Calif., USA. Cells were maintained in complete Endothelial Cell Medium (Clonetics® EGM®-2-MV BulletKit®) containing 500 ml of Endothelial Cell Basal Medium-2 and supplemented with hEGF, 0.5 ml; Hydrocortisone, 0.2 ml; GA-1000, 0.5 ml; FBS, 25 ml; VEGF, 0.5 ml; hFGF-B, 2.0 ml; R3-IGF-1, 0.5 ml; Ascorbic Acid, 0.5 ml in a 37° C. humidified atmosphere of 5% CO2/95% air. HMVEC-d were used for experiments between passages 4-8.
The responses to different compound treatments were examined using a crystal violet-based proliferation assay to test the effects of the compounds on cell proliferation. HMVEC-d were seeded in 96-well plates in complete medium at a density of 25,000 cells/cm^2 and allowed to attach in a humidified atmosphere of 5% CO2, 95% air and at 37° C. Cells were treated with the compounds at different concentrations in replicates wells, and cell proliferation was evaluated after 24 h. At the specific time point medium was removed, cells were fixed with 1% glutaraldehyde and stained with a 0.1% crystal violet solution (Pro-lab diagnostics) for 30 min. The plates were then washed extensively in water and air dried. Cell-associated dye was extracted with a 1% solution of Triton X100 and the absorbance was determined at 550 nm using a plate reader (Multiskan Ascent, Lab Systems).

[5] = 5 μM, treated day 1-5, analysed 5 dpf
[6] = 10 μM, treated day 1-5, analysed 5 dpf

SMILES	level of IL-1β secreted by human tumour explants [1]	level of IL-1b secreted by human tumour explants [1]	number of primary branches of hyaloid vasculature ([2]; 4 μM, analysed 5 dpf)	number of primary branches of hyaloid vasculature [2, 5]	number of primary branches of hyaloid vasculature ([2]; 7.5 μM, analysed 5 dpf)	anti-angiogenic effect compared with Avastin, number of primary hyaloid branches ([2]; 10 μM)	number of primary branches of hyaloid vasculature [2, 6]	dose-dependence of inhibition of hyaloid vasculature development [2]	inhibition of intraocular angiogenesis (hyaloid vessels) in library screen [2]	wholemount morphology of larvae (zebrafish larvae; 10 μM, treated from day 2-5 or day 3-5)	toxic effects / gross morphology of larvae (zebrafish larvae)	morphology of eyes in transverse sections (layering of the retina, size of retina/lens, presence of optic nerve) (zebrafish larvae; treated larvae)	inhibition of developmental angiogenesis of the trunk intersegmental vessels [3]	dose-dependence of inhibition of intersegmental vessel development [3]	inhibition at 10 µM [3] [%]	effect on existing (earlier formed) intersegmental vessels of the trunk ([3]; added from day 1-5)	effect on HMVEC-d proliferation [4]
Oc1ccccc1/C=C/c1ccc2ccccc2n1 [11B]	significantly reduced	significantly reduces	significant inhibition	significant inhibition; also recorded: significant reduction	significant inhibition	more effective anti-angiogenic effect than Avastin	significant inhibition; also recorded: significant reduction	dose-dependent and statistically significant manner; also recorded: dose-dependent inhibition	inhibit intraocular angiogenesis	normal	do not induce toxic effects	normal	significant inhibition	dose-dependent and statistically significant manner	44	no effect; also recorded: intact	no significant effect; also recorded: neither 11B nor 11F had a significant effect
COc1cc2c(C3CCCN3C)cnc(Cc3ccc4c(c3)OCO4)c2cc1OC (stereo not shown) [11F, 1-(1,3-benzodioxol-5-ylmethyl)-6,7-dimethoxy-4-(1-methyl-2-pyrrolidinyl)isoquinoline]	significantly reduced	significantly reduced	–	significant inhibition	–	–	significant inhibition	dose-dependent and statistically significant manner	inhibit intraocular angiogenesis	–	do not induce toxic effects	–	modest but significant inhibition	dose-dependent and statistically significant manner	16	–	no significant effect; also recorded: neither 11B nor 11F had a significant effect
